Data taken from paper PMC12951562, “SH2scan: Mapping SH2 Domain-Ligand Binding Selectivity for Inhibitors and Degraders” (Journal of Medicinal Chemistry, 2026).
Where two headings read alike, the source gives them in different places. Non-standard residues stand in square brackets, D forms with d. Residues, ends and D or L forms follow the SMILES beside them. *: point of attachment. pY = N[C@@H](Cc1ccc(OP(=O)(O)O)cc1)C(=O)O; Caffeoyl = O=C(/C=C/c1ccc(O)c(O)c1)*

Tests used:
Test in all cases: biochemical
Assay type in all cases: binding
GRB7 = target: T1, GRB7 (Homo sapiens, UniProt Q14451); conditions: for percent of DMSO vehicle control at 10 µM / remaining activity at 10 µM: read-out: percent of DMSO vehicle control
T1 construct: the DNA-tagged SH2 domain concentrations used in this study were <0.1 nM; made in house; host or cells: HEK293 (transient transfection; unpurified extract)
T1 sequence (Q14451 431-527 limits assumed): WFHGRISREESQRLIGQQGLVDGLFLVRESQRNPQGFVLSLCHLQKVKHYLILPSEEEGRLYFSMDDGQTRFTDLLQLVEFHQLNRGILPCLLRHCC

GRB10 = target: T2, GRB10 (Homo sapiens, UniProt Q13322); conditions: for percent of DMSO vehicle control at 10 µM / remaining activity at 10 µM: read-out: percent of DMSO vehicle control
T2 construct: the DNA-tagged SH2 domain concentrations used in this study were <0.1 nM; made in house; host or cells: HEK293 (transient transfection; unpurified extract)
T2 sequence (Q13322 493-574 limits assumed): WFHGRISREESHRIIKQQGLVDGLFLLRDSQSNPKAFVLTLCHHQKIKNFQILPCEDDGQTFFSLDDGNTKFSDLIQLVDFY

ITK = target: T3, ITK (Homo sapiens, UniProt Q08881); conditions: for percent of DMSO vehicle control: primary screen, 10 μM
T3 construct: the DNA-tagged SH2 domain concentrations used in this study were <0.1 nM; made in house; host or cells: HEK293 (transient transfection, unpurified extract)
T3 sequence (Q08881 239-338 limits assumed): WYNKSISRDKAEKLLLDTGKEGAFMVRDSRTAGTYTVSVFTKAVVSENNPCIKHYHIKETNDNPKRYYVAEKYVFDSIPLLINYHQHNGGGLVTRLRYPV

CBLC = target: T4, CBLC (Homo sapiens, UniProt Q9ULV8); conditions: for percent of DMSO vehicle control at 10 µM / remaining activity at 10 µM: read-out: percent of DMSO vehicle control
T4 construct: the DNA-tagged SH2 domain concentrations used in this study were <0.1 nM; made in house; host or cells: HEK293 (transient transfection; unpurified extract)
T4 sequence (Q9ULV8 219-321 limits assumed): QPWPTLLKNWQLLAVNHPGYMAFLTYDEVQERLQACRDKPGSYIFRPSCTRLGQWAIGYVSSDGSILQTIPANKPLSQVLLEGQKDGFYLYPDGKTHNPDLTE

SOCS7 = target: T5, SOCS7 (Homo sapiens, UniProt O14512); conditions: for remaining activity at 10 µM: read-out: percent of DMSO vehicle control
T5 construct: made in house; host or cells: HEK293 (transient transfection), unpurified extract
T5 sequence (O14512 1-581): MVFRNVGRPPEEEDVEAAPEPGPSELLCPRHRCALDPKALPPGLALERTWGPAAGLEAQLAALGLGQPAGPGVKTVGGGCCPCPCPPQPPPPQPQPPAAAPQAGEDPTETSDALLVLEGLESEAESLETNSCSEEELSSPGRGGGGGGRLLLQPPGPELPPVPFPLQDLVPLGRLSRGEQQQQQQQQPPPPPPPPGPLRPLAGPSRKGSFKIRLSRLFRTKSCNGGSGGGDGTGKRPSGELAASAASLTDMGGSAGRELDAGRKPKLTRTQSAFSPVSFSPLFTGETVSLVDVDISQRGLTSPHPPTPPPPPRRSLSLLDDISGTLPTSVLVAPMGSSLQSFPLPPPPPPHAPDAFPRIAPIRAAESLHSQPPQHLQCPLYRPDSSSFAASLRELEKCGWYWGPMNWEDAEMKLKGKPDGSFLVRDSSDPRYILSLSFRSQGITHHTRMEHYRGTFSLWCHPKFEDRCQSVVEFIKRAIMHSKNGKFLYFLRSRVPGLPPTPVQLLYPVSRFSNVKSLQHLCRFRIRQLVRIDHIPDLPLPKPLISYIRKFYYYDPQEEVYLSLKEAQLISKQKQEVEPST

VAV1 = target: T6, VAV1 (Homo sapiens, UniProt P15498); conditions: for percent of DMSO vehicle control at 10 µM / remaining activity at 10 µM: read-out: percent of DMSO vehicle control
T6 construct: made in house; host or cells: HEK293 (transient transfection), unpurified extract
T6 sequence (P15498 1-845): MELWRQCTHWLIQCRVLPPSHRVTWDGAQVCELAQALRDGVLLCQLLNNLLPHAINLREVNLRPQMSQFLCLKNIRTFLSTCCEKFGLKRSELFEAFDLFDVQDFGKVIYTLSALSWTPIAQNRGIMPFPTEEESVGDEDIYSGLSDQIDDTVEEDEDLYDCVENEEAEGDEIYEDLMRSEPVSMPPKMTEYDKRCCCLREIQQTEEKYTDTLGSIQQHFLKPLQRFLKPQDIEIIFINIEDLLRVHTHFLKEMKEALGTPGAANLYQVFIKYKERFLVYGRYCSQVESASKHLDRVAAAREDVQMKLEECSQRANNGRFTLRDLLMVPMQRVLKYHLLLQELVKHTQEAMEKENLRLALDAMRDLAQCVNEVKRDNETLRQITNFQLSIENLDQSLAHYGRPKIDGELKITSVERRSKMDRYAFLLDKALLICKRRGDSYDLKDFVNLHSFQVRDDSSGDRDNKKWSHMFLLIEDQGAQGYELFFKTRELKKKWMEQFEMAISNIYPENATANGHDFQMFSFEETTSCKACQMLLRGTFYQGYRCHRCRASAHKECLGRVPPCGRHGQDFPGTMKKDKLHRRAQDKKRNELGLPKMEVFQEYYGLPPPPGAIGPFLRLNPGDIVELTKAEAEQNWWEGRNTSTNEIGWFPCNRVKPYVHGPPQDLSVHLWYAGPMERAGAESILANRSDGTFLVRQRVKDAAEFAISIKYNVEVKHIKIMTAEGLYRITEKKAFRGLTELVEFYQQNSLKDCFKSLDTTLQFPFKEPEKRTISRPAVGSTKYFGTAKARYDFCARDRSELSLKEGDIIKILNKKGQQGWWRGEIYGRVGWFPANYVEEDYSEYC

SHC1 = target: T7, SHC1 (Homo sapiens, UniProt P29353); conditions: for remaining activity at 10 µM: read-out: percent of DMSO vehicle control
T7 construct: made in house; host or cells: HEK293 (transient transfection), unpurified extract
T7 sequence (P29353 1-583): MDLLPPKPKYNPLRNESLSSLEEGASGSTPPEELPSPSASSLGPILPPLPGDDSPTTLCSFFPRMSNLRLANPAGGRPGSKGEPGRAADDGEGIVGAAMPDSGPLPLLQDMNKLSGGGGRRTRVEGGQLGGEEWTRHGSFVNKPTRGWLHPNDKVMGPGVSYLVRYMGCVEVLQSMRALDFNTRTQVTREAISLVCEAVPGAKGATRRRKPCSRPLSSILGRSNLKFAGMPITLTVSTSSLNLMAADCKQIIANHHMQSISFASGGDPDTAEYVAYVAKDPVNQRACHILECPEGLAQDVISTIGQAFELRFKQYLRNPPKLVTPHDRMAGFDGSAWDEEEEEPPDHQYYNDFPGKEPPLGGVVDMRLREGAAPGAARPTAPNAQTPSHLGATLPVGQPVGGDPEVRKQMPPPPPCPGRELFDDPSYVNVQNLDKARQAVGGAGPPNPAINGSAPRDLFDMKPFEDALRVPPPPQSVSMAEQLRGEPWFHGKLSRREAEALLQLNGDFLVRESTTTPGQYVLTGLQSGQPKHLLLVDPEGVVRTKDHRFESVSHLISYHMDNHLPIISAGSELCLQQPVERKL

SMILES	percent of DMSO vehicle control at 10 µM (GRB7) [%]	percent of DMSO vehicle control at 10 µM (GRB10) [%]	percent of DMSO vehicle control (ITK) [%]	percent of DMSO vehicle control at 10 µM (CBLC) [%]	remaining activity at 10 µM (SOCS7) [%]	percent of DMSO vehicle control at 10 µM (VAV1) [%]	remaining activity at 10 µM (SHC1) [%]	remaining activity at 10 µM (GRB7; primary screen, 10 μM) [%]	remaining activity at 10 µM (GRB10; primary screen, 10 μM) [%]	remaining activity at 10 µM (CBLC; primary screen, 10 μM) [%]	remaining activity at 10 µM (SOCS7; primary screen, 10 μM) [%]	remaining activity at 10 µM (VAV1; primary screen, 10 μM) [%]	remaining activity at 10 µM (SHC1; primary screen, 10 μM) [%]	also measured
NC(=O)CC[C@H](NC(=O)[C@@H]1CC[C@@H]2CCN(C(=O)CCCCCC#Cc3cccc4c3CN(C3CCC(=O)NC3=O)C4=O)C[C@H](NC(=O)c3cc4cc(C(F)(F)P(=O)(O)O)ccc4[nH]3)C(=O)N21)C(=O)NC(c1ccccc1)c1ccccc1 (stereo partly shown) [SD-36]	66.9 ± 4.6	111 ± 9.2	94.0±11.1	113 ± 4.5	271	116 ± 3	62 ± 8.8	–	–	–	–	–	–	–
CC(C)(C)[C@H](NC(=O)/C=C/c1ccc(OP(=O)(O)O)cc1)C(=O)N1CCC[C@H]1C(=O)N(c1ccccc1)c1ccc(I)cc1 [STAT6-IN-3]	–	–	0±54.7	–	–	–	–	81.2 ± 4.6	58.8 ± 17.6	34.7 ± 1.3	50.9 ± 16.4	67.6 ± 32.1	62.5 ± 13.9	Kd (CBLC; dose-response, read-out: KD): 2800 ± 520 nM
CC[C@H](C)[C@H](NC(=O)[C@H](CCC(=O)O)NC(=O)[C@H](CCC(=O)O)NC(=O)[C@H](Cc1ccc(OP(=O)(O)O)cc1)NC(C)=O)C(=O)N[C@@H](CCC(=O)O)C(N)=O [Ac-pYEEIE-NH2] (Ac-[pY]EEIE-NH2)	–	–	122.5	–	–	–	–	–	–	–	–	–	–	percent of DMSO vehicle control (GRB7; primary screen, 10 μM): 123.8%; percent of DMSO vehicle control (GRB10; primary screen, 10 μM): 155.2%; percent of DMSO vehicle control (CBLC; primary screen, 10 μM): 97.4±7.1%; percent of DMSO vehicle control (SOCS7; primary screen, 10 μM): 110.9%; percent of DMSO vehicle control (VAV1; primary screen, 10 μM): 87.2±8.1%; percent of DMSO vehicle control (SHC1; primary screen, 10 μM): 105.0%
O=C(CCl)Nc1cccc(CNC(=O)[C@H](Cc2ccc(OP(=O)(O)O)cc2)NC(=O)Cc2ccc(F)cc2)c1 [MN551]	–	–	51.4±1.1	–	–	–	–	71.3 ± 3.5	61.8	43 ± 3.8	21.9 ± 5	109	112	Kd (SOCS7; dose-response, read-out: KD): 8100 nM
CC(=O)N[C@@H](Cc1ccc(CP(=O)(O)O)cc1)C(=O)NC1(C(=O)N[C@@H](CC(N)=O)C(=O)NCCCc2c(O)ccc3ccccc23)CCCCC1 [CGP78850]	0	88.5 ± 13.4	113.6±8.8	128 ± 29.6	126 ± 4.2	1.8 ± 0.4	49.8 ± 6.2	–	–	–	–	–	–	Kd (GRB7): 5.2 nM; Kd (VAV1): 260 nM
CC(=O)N1CC[C@H]2CC[C@@H](C(=O)N[C@@H](CCC(N)=O)C(=O)NC(c3ccccc3)c3ccccc3)N2C(=O)[C@@H](NC(=O)c2cc3cc(C(F)(F)P(=O)(O)O)ccc3[nH]2)C1 [SI-109]	135	122	124.2	106	124	112	112	–	–	–	–	–	–	–
CC[C@H](C)[C@H](NC(=O)[C@H](CCC(=O)O)NC(=O)[C@H](CCC(=O)O)NC(=O)[C@H](Cc1ccc(OP(=O)(O)O)cc1)NC(=O)/C=C/c1ccc(O)c(O)c1)C(=O)N[C@@H](CCC(=O)O)C(=O)O [Caffeic acid-pYEEIE] (Caffeoyl-[pY]EEIE-OH)	0.2 ± 0.1	0.7 ± 0.9	3.1±0.3	0.1	0.5 ± 0.4	1.6 ± 0.6	0	–	–	–	–	–	–	Kd (GRB7): 6100 ± 320 nM; Kd (GRB10): 480 ± 79 nM; Kd (ITK): 570 ± 630 nM; Kd (CBLC): 37 ± 23 nM; Kd (SOCS7): 280 ± 140 nM; Kd (VAV1): 840 ± 530 nM; Kd (SHC1): 320 ± 280 nM
O=C(COc1ccc2cc(C(=O)Nc3ccccc3)ccc2c1)NCc1ccc(OP(=O)(O)O)c(OP(=O)(O)O)c1 [Stafib-1]	–	–	0±61.0	–	–	–	–	57.9 ± 22.2	78.1 ± 12.9	100	81 ± 17.8	106	67.3 ± 22.1	KD (ITK; dose-response): No Hit
C/C(=C\C(=O)N[C@H](C(=O)N1CCC[C@H]1C(=O)N(c1ccccc1)c1ccc(I)cc1)C(C)(C)C)c1ccc(OP(=O)(O)O)cc1 [STAT6-IN-1]	–	–	0.0±0.0	–	–	–	–	47.7 ± 4.2	14.6 ± 11	3.3 ± 0.1	34.6 ± 0.1	55.3 ± 2.6	48.2 ± 4.5	KD (GRB10; dose-response): No Hit; Kd (ITK; dose-response, read-out: KD): 10300 nM; Kd (CBLC; dose-response, read-out: KD): 1800 ± 490 nM; KD (SOCS7; dose-response): No Hit
